{"source": "patent US20100022401A1", "about": "“Avidin-like proteins from symbiotic bacteria” (LICENTIA OY, priority 2004, published 2010)", "key": {"[1]": {"test": "Fluorescent biotin conjugate dissociation assay", "type": "binding", "description": "FIG. 2 Biotin dissociation analysis. (A) The [3H]biotin dissociation rate constant was measured at different temperatures. The values for streptavidin are from Klumb et al. (Klumb et al., 1998). The scale of the Y axis is logarithmic. (B) Release of fluorescent biotin conjugate from avidins was studied as a function of time in the presence of excess D-biotin at 50° C.\nLigand binding properties were studied both by [3H]biotin assay and fluorescent biotin conjugate assay. The dissociation rate constant of [3H]biotin (Amersham) from the bradavidins and avidin was measured at various temperatures as described in detail previously (Klumb et al., 1998). According to the results, (Table I, FIG. 2) the faster dissociation rate measured from bradavidin indicates weaker affinity toward the radiobiotin than those of avidin and streptavidin. The dissociation rate of a fluorescent biotin conjugate (ArcDia BF560™-biotin) was measured as previously described (Hytönen et al., 2004a) at 50° C.\nThe apparent molecular mass is indicated and followed by the theoretical mass in brackets. Transition temperature (Tr) indicates the temperature in which half of the protein is tetrameric and half monomeric in the absence (first value) and presence (second value) of biotin. In addition to the measured dissociation rate constant (kdiss), the release percentage of the fluorescent biotin conjugate in one hour in the presence of excess free biotin is indicated. Calculated isoelectrical point (pI) and the number of cysteine residues per monomer are also indicated."}, "[2]": {"conditions": "radio-biotin; streptavidin values from Klumb et al., 1998; cited from earlier work"}, "[3]": {"conditions": "values from Bayer et al., 1996, cited from earlier work"}}, "note": "Read-outs that look alike come from different tables or passages of the source. Marks after values point to notes of the source that are not given here.", "data": [{"substance": "Streptavidin: bacterial analog for avidin from S. avidinii (SEQ ID NO:7) [reference compound]", "values": [{"measurement": "Fluorescent biotin kdiss", "setting": "[1]; ArcDia BF560-biotin, 50° C.", "value": "7.2e-06", "unit": "s⁻¹"}, {"measurement": "Fluorescent biotin conjugate dissociation (in words)", "setting": "[1]; fluorescent biotin conjugate as ligand", "value": "very slow and small release"}, {"measurement": "Release 1 h of fluorescent biotin conjugate", "setting": "[1]; one hour, presence of excess free biotin, 50° C.", "value": 5.1, "unit": "%"}, {"measurement": "[3H]biotin dissociation rate (in words)", "setting": "[2]", "value": "fell between these two"}, {"measurement": "Heat treatment SDS-PAGE Tr (transition temperature)", "setting": "[3]; absence of biotin", "value": "72^a ° C."}, {"measurement": "Heat treatment SDS-PAGE Tr (transition temperature)", "setting": "[3]; presence of biotin", "value": "100^a ° C."}]}]}
